# Test results: patent publication US9708314B2, “Heterocyclic amide compound” (NISSAN CHEMICAL INDUSTRIES, LTD., priority 2013, dated 2017)
# Columns and labels:
# Type in all cases: in vivo
# Monochoria vaginalis [1] = assay: Test Example 1: herbicidal activity, application before weed generation in submerged conditions; settings: Seventeenth Table; for C: Monochoria vaginalis (herbicidal effect grade): Application herbicide amount 320 g/ha; for C (Monochoria vaginalis) herbicidal ratio grade: application herbicide amount 320 g/ha
# Method in brief: (§1)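 Pre-emergence water-surface application under 4 cm flooding, same day as sowing, with rice transplanted at 2.5 leaf stage. Dose given as g/ha. Plants grown at 25° C. to 30° C. and rated three weeks later on a 0 (≤5%) to 5 (≥90%) herbicidal-ratio scale.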
# Scirpus juncoides [2] = assay: as above; settings: Seventeenth Table; for B: Scirpus juncoides (herbicidal effect grade): Application herbicide amount 320 g/ha; for B (Scirpus juncoides) herbicidal ratio grade: application herbicide amount 320 g/ha
# Method in brief: as §1
# [3] = system: Echinochloa oryzacola Vasing.; assay: Test Example 2: herbicidal activity, application during weed generation in submerged conditions; settings: Eighteenth Table; application herbicide amount 320 g/ha
# Method in brief: (§2)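 Scored three weeks post-application on a 0–5 scale (5: ≥90% herbicidal ratio, almost withered; 0: ≤5%). Plants raised from mixed-sown seed in submerged alluvial soil (4 cm water), 25–30 °C greenhouse; water-diluted emulsion applied onto water surface at one- to two-leaf stage, dose in g/ha.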
# Monochoria vaginalis [4] = assay: as above; settings: Eighteenth Table; application herbicide amount 320 g/ha
# Method in brief: as §2
# Scirpus juncoides [5] = assay: as above; settings: Eighteenth Table; application herbicide amount 320 g/ha
# Method in brief: as §2
# Amaranthus retroflexus = assay: Test Example 4: herbicidal effect by application to foliage (diluvial soil, plastic box); settings: application to foliage; for N: herbicidal effect on Amaranthus retroflexus: application herbicide amount 320 g/ha; for herbicidal effect, N (Amaranthus retroflexus): 320 g/ha
# Method in brief: (§3)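 Seeds sown in sterilized diluvial soil, covered ~1.5 cm, grown 14 days in greenhouse at 25° C. to 30° C. Emulsion formulation diluted in water to set rate (g/ha) and sprayed onto stems and leaves. Effect scored visually 3 weeks later on 0–5 scale (5 = ≥90% herbicidal ratio, 0 = ≤5%).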
# Stellaria media = assay: as above; settings: application to foliage; for P: herbicidal effect on Stellaria media: application herbicide amount 320 g/ha; for herbicidal effect, P (Stellaria media): 320 g/ha
# Method in brief: as §3
# Veronica persica = assay: as above; settings: for R: herbicidal effect on Veronica persica / herbicidal effect, R (Veronica persica): application to foliage; for R: herbicidal effect on Veronica persica: application herbicide amount 320 g/ha; for herbicidal effect, R (Veronica persica): 320 g/ha
# Method in brief: as §3
Structure (SMILES),C: Monochoria vaginalis (herbicidal effect grade) (Monochoria vaginalis [1]),B: Scirpus juncoides (herbicidal effect grade) (Scirpus juncoides [2]),A (Echinochloa oryzicola Vasing.) herbicidal ratio grade [3],C (Monochoria vaginalis) herbicidal ratio grade (Monochoria vaginalis [4]),B (Scirpus juncoides) herbicidal ratio grade (Scirpus juncoides [5]),N: herbicidal effect on Amaranthus retroflexus (Amaranthus retroflexus),P: herbicidal effect on Stellaria media (Stellaria media),R: herbicidal effect on Veronica persica (Veronica persica),R (Veronica persica; Application herbicide amount 320 g/ha),C (Monochoria vaginalis) herbicidal ratio grade (Monochoria vaginalis [1]),B (Scirpus juncoides) herbicidal ratio grade (Scirpus juncoides [2]),"herbicidal effect, N (Amaranthus retroflexus) (Amaranthus retroflexus)","herbicidal effect, P (Stellaria media) (Stellaria media)","herbicidal effect, R (Veronica persica) (Veronica persica)"
CN(CCC#N)c1nnc2c(C(=O)Nc3nnco3)ccc(C(F)(F)F)n12 [1-164],4 (Herbicidal ratio of 70% or more and less than 90%),5 (Herbicidal ratio of 90% or more (almost completely withered)),4 (Herbicidal ratio of 70% or more and less than 90%),4 (Herbicidal ratio of 70% or more and less than 90%),4 (Herbicidal ratio of 70% or more and less than 90%),5 (Herbicidal ratio of 90% or more (almost completely withered)),,,,,,,,
Cc1nnc(NC(=O)c2ccc(C(F)(F)F)n3c(CC(F)(F)F)nnc23)o1 [1-162],0 (Herbicidal ratio of 5% or less (almost no effect)),2 (Herbicidal ratio of 20% or more and less than 40%),3 (Herbicidal ratio of 40% or more and less than 70%),0 (Herbicidal ratio of 5% or less (almost no effect)),1 (Herbicidal ratio of 5% or more and less than 20%),4 (Herbicidal ratio of 70% or more and less than 90%),3 (Herbicidal ratio of 40% or more and less than 70%),3 (Herbicidal ratio of 40% or more and less than 70%),,,,,,
C=CCc1nnc2c(C(=O)Nc3nnco3)ccc(C(F)(F)F)n12 [1-158],0 (Herbicidal ratio of 5% or less (almost no effect)),4 (Herbicidal ratio of 70% or more and less than 90%),2 (Herbicidal ratio of 20% or more and less than 40%),0 (Herbicidal ratio of 5% or less (almost no effect)),3 (Herbicidal ratio of 40% or more and less than 70%),4 (Herbicidal ratio of 70% or more and less than 90%),5 (Herbicidal ratio of 90% or more (almost completely withered)),4 (Herbicidal ratio of 70% or more and less than 90%),,,,,,
Cc1nnc(NC(=O)c2ccc(C(F)(F)F)n3c(CC(=O)NC(C)C)nnc23)o1 [1-061],,,0 (Herbicidal ratio of 5% or less (almost no effect)),1 (Herbicidal ratio of 5% or more and less than 20%),1 (Herbicidal ratio of 5% or more and less than 20%),,,,5 (Herbicidal ratio of 90% or more (almost completely withered)),,,,,
CCSc1nnc2c(C(=O)Nc3ncnn3C)ccc(C(F)(F)F)n12 [4-003],,,,,,,,,,0 (Herbicidal ratio of 5% or less (almost no effect)),2 (Herbicidal ratio of 20% or more and less than 40%),2 (Herbicidal ratio of 20% or more and less than 40%),4 (Herbicidal ratio of 70% or more and less than 90%),2 (Herbicidal ratio of 20% or more and less than 40%)
C#CCN(C)c1nnc2c(C(=O)Nc3nnco3)ccc(C(F)(F)F)n12 [1-163],4 (Herbicidal ratio of 70% or more and less than 90%),4 (Herbicidal ratio of 70% or more and less than 90%),4 (Herbicidal ratio of 70% or more and less than 90%),,,4 (Herbicidal ratio of 70% or more and less than 90%),4 (Herbicidal ratio of 70% or more and less than 90%),2 (Herbicidal ratio of 20% or more and less than 40%),,,,,,
Cc1nnc(NC(=O)c2ccc(C(F)(F)F)n3c(CC#N)nnc23)o1 [1-168],,,2 (Herbicidal ratio of 20% or more and less than 40%),,2 (Herbicidal ratio of 20% or more and less than 40%),3 (Herbicidal ratio of 40% or more and less than 70%),5 (Herbicidal ratio of 90% or more (almost completely withered)),5 (Herbicidal ratio of 90% or more (almost completely withered)),,,,,,
COCCc1nnc2c(C(=O)Nc3nnc(C)o3)ccc(C(F)(F)F)n12 [1-173],,,3 (Herbicidal ratio of 40% or more and less than 70%),2 (Herbicidal ratio of 20% or more and less than 40%),2 (Herbicidal ratio of 20% or more and less than 40%),5 (Herbicidal ratio of 90% or more (almost completely withered)),5 (Herbicidal ratio of 90% or more (almost completely withered)),4 (Herbicidal ratio of 70% or more and less than 90%),,,,,,
Cn1nnnc1NC(=O)c1ccc(C(F)(F)F)n2c(SCc3ccc(Cl)nc3)nnc12 [2-097],3 (Herbicidal ratio of 40% or more and less than 70%),4 (Herbicidal ratio of 70% or more and less than 90%),0 (Herbicidal ratio of 5% or less (almost no effect)),2 (Herbicidal ratio of 20% or more and less than 40%),2 (Herbicidal ratio of 20% or more and less than 40%),,,,,,,3 (Herbicidal ratio of 40% or more and less than 70%),4 (Herbicidal ratio of 70% or more and less than 90%),4 (Herbicidal ratio of 70% or more and less than 90%)
CCSc1nnc2c(C(=O)Nc3nnnn3CCOC)ccc(C(F)(F)F)n12 [2-098],,,5 (Herbicidal ratio of 90% or more (almost completely withered)),3 (Herbicidal ratio of 40% or more and less than 70%),4 (Herbicidal ratio of 70% or more and less than 90%),,,,,4 (Herbicidal ratio of 70% or more and less than 90%),5 (Herbicidal ratio of 90% or more (almost completely withered)),5 (Herbicidal ratio of 90% or more (almost completely withered)),5 (Herbicidal ratio of 90% or more (almost completely withered)),4 (Herbicidal ratio of 70% or more and less than 90%)
Cn1nnnc1NC(=O)c1ccc(C(F)(F)F)n2c(SC3CCCC3)nnc12 [2-096],4 (Herbicidal ratio of 70% or more and less than 90%),5 (Herbicidal ratio of 90% or more (almost completely withered)),3 (Herbicidal ratio of 40% or more and less than 70%),3 (Herbicidal ratio of 40% or more and less than 70%),3 (Herbicidal ratio of 40% or more and less than 70%),,,,,,,5 (Herbicidal ratio of 90% or more (almost completely withered)),4 (Herbicidal ratio of 70% or more and less than 90%),3 (Herbicidal ratio of 40% or more and less than 70%)
C=CCN(C)c1nnc2c(C(=O)Nc3nnc(C)o3)ccc(C(F)(F)F)n12 [1-166],2 (Herbicidal ratio of 20% or more and less than 40%),3 (Herbicidal ratio of 40% or more and less than 70%),2 (Herbicidal ratio of 20% or more and less than 40%),,3 (Herbicidal ratio of 40% or more and less than 70%),4 (Herbicidal ratio of 70% or more and less than 90%),4 (Herbicidal ratio of 70% or more and less than 90%),,,,,,,
